# Data taken from patent publication US8093028B2, “Engineered glycosyltransferases with expanded substrate specificity” (Wisconsin Alumni Research Foundation, priority 2007, dated 2012).
# Where two headings read alike, the source gives them in different places.
# What was measured:
# OleD P67T = molecular target: T1, OleD P67T (Streptomyces antibioticus, UniProt Q53685, P55A/P67T/R82V/R83E/T84P); type: biochemical; settings: Table 3, 4-Me-umb (4) as acceptor, end point assay
# T1 construct: made in house; host or cells: E. coli (site-directed mutant of pET28/OleD)
# Procedure: (§1) Reactions were carried out as described above with the following exceptions. The total volume was 50 μl and the acceptor FIG. 1: 4 was at 50 μM and the NDP-sugar at ˜500 μM. The NDP-sugars were used directly from RmlA-catalyzed reactions. […] Reactions were incubated at 25° C. for 3 h.
# (§2) The total volume was 50 μl and the acceptor FIG. 1: 4 or FIG. 1: 1 was at 50 μM and the NDP-sugar at ˜500 μM. The NDP-sugars were used directly from RmlA-catalyzed reactions. […] Reactions were incubated at 25° C. for 3 h.
# (§3) For activity toward FIG. 1: 4, aliquots (25 μl) were quenched with 25 μl of an 8:1 mixture of ice-cold MeOH/HCl, and centrifuged at 14,000 rpm for 10 min. […] HPLC peak areas were integrated, and the product concentration calculated as a percent of the total peak area. All products were characterized by LC-MS. Mass spectra were obtained using electrospray ionization on an Agilent 1100 HPLC-MSD SL quadrapole mass spectrometer connected to a UV/Vis diode array detector.
# WT OleD = molecular target: T2, WT OleD (Streptomyces antibioticus, UniProt Q53685, P55A/R82V/R83E/T84P); type: biochemical; settings: for Conversion rates (%), WT: Table 3, 4-Me-umb (4) as acceptor, end point assay; for Conversion Rate (%), WT: Table 2, acceptor 4 at 50 μM, NDP-sugar ~500 μM, 25° C., 3 h
# T2 construct: made in house; host or cells: E. coli BL21(DE3)pLysS, plasmid pET28/OleD
# Procedure: as §1, §2, §3
# OleD A242V = molecular target: T3, OleD A242V (Streptomyces antibioticus, UniProt Q53685, A242V/P55A/R82V/R83E/T84P); type: biochemical; settings: Table 3, 4-Me-umb (4) as acceptor, end point assay
# T3 construct: made in house; host or cells: E. coli BL21(DE3)pLysS (error-prone PCR clone in pET28a)
# Procedure: as §1, §2, §3
# OleD P67T/S132F/A242V [1] = molecular target: T4, OleD P67T/S132F/A242V (Streptomyces antibioticus, UniProt Q53685, A242V/P67T/S132F); type: biochemical; settings: for Conversion rates (%), P67T/S132F/A242V: Table 3, 4-Me-umb (4) as acceptor, end point assay; for Conversion Rate (%), P67T/S132F/A242V: Table 2, acceptor 4 at 50 μM, NDP-sugar ~500 μM, 25° C., 3 h
# T4 construct: made in house; host or cells: E. coli (site-directed mutant of pET28/OleD)
# Procedure: as §1, §2, §3
# OleD S132F = molecular target: T5, OleD S132F (Streptomyces antibioticus, UniProt Q53685, P55A/R82V/R83E/S132F/T84P); type: biochemical; settings: Table 3, 4-Me-umb (4) as acceptor, end point assay
# T5 construct: made in house; host or cells: E. coli (site-directed mutant of pET28/OleD)
# Procedure: as §1, §2, §3
# OleD P67T/S132F/A242V [2] = molecular target: T4, OleD P67T/S132F/A242V; type: biochemical; settings: novobiocic acid (FIG. 9: 1) as acceptor
# Procedure: Biotechnol. […] Reactions were incubated at 25° C. for 3 h. […] Supernatants were analyzed by analytical reverse-phase HPLC as described above. HPLC peak areas were integrated, and the product concentration calculated as a percent of the total peak area. All products were characterized by LC-MS.
# [3] = tested on: ASP OleD (A242V/S132F/P67T); assay: Kinetic parameters with model acceptors phenol, thiophenol, aniline; type: biochemical, Streptomyces antibioticus; settings: UDP-Glc donor
# Source text: To confirm O—, S- and N-glucoside formation, iterative glycosylation, and determine anomeric stereoselectivity, a select set of OleD-catalyzed reactions with simple aromatic model acceptors phenol (FIG. 17: 8), thiophenol (FIG. 17: 6), and aniline (FIG. 17: 34) were studied in depth.
# [4] = tested on: CC(C)=CCc1cc(C(=O)Nc2c(O)c3ccc(O)c(C)c3oc2=O)ccc1O; assay: purified protein, by the assay type; settings: other: named substrate varied, other substrate fixed at 5 mM; pH 8.0
Molecule,"Conversion rates (%), P67T (OleD P67T)","Conversion rates (%), WT (WT OleD)","Conversion rates (%), A242V (OleD A242V)","Conversion rates (%), P67T/S132F/A242V (OleD P67T/S132F/A242V [1])","Conversion rates (%), S132F (OleD S132F)",catalytic efficiency (kcat/Km) improvement of ASP versus WT OleD [3],other results
"[N-]=[N+]=NCC1OC(OP(=O)(O)OP(=O)(O)OC[C@H]2O[C@@H](n3ccc(=O)[nH]c3=O)[C@H](O)[C@@H]2O)C(O)C(O)C1O (stereo partly shown) [UDP-6-azido-glc (11), UDP-6-azido-glucose]",2%,0%,2%,41%,1%,,"donor acceptance, P67T/S132F/A242V (OleD P67T/S132F/A242V [2]): albeit poorly"
"Nc1ccccc1 [aniline (FIG. 17: 34), aniline]",,,,,,5 fold,
"Oc1ccccc1 [phenol (FIG. 17; 8), phenol]",,,,,,25 fold,
"Sc1ccccc1 [thiophenol (FIG. 17: 6), thiophenol]",,,,,,4 fold,
OleD P67T/I112K/A242V (Streptomyces antibioticus; A242V/I112K/P67T),,,,,,,Km [4]: 0.8 mM; kcat [4]: 5.13 min⁻¹
UDP-4-deoxy-glc [UDP-4-deoxy-glc (12)],0%,0%,0%,22%,0%,,
UDP-6-deoxy-glucose [UDP-6-deoxy-glc (8)],11%,6%,6%,85%,10%,,"Conversion rates (%), P67T (OleD P67T; listed as FIG. 3: 8): ≤ 12%; Conversion Rate (%), WT (WT OleD): 6%; Conversion rates (%), A242V (OleD A242V; listed as FIG. 3: 8): ≤ 12%; Conversion Rate (%), P67T/S132F/A242V (OleD P67T/S132F/A242V [1]): 85%; Conversion rates (%), S132F (OleD S132F; listed as FIG. 3: 8): ≤ 12%"
UDP-6-thio-glucose [FIG. 3: 9],,,,,,,"Conversion Rate (%), WT (WT OleD; listed as 9): 1%; Conversion Rate (%), P67T/S132F/A242V (OleD P67T/S132F/A242V [1]): 47%"
